Data from PMC8359193, “Summary of reference chemicals evaluated by the fish short‐term reproduction assay, OECD TG229, using Japanese Medaka, Oryzias latipes” (Journal of Applied Toxicology, 2021).
“Also recorded” adds a separate entry of the source.

Key:
[1] = test system: Japanese medaka (Oryzias latipes); experiment: Fish short-term reproduction assay (FSTRA, OECD TG229), 21-day flow-through exposure; details: for Fertility rate (%) / Mortality (%) Female / Mortality (%) Male / Number of fertilized eggs / Number of total eggs / SSC Female / SSC Male / VTG (ng/mg of liver) Female / VTG (ng/mg of liver) Male: 21 days; for GSI Female / GSI Male / HSI Female / HSI Male / Length Female / Length Male / Weight Female / Weight Male: at completion of exposure
How it was run: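 Run to OECD TG229: mature NIES-R medaka pairs (3♂/3♀ per vessel, 4 vessels per treatment plus dilution water control) were dosed by continuous flow-through for 21 days. Test concentrations were spaced 2- to 5-fold. Daily spawned eggs were counted under the microscope for fertilized versus unfertilized.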

medaka ARβ (mARβ) = medaka ARβ (mARβ) (Oryzias latipes, UniProt D1MV73); experiment: Medaka ARβ reporter gene assay (RGA), antagonist assay with 50 nM 11KT, HepG2 cells; type: cell-based, Japanese medaka (Oryzias latipes); details: 50 nM 11KT-induced mARβ activity
Procedure: To support interpretation of the biological effects observed in the FSTRA studies, in vitro RGAs using medaka Esr1 (mEsr1) and medaka ARβ (mARβ) were performed for the 16 test chemicals. In the present study, Esr1 and ARβ, which are ancestral subtypes among Esrs and ARs in Japanese medaka, were selected based on the phylogenetical analyses of Esr and AR with each receptor RGAs (Ogino et al., [2016], [2018]; Tohyama et al., [2015]).
The mARβ RGA in which the agonist and the antagonist assays were performed as same as the mEsr1 RGA was carried out according to the methods previously reported by Lange et al. ([2015]). For the assays, human liver cancer cell line, HepG2, was used as the host cells, and mARβ/pcDNA3.1, MMTV‐Luc, and pRL‐TK‐Rlu were used as mARβ expression vector, reporter vector, and internal control vector, respectively. Other materials and methods, for example, operating procedure, reagents, and incubation conditions, were almost the same as the mEsr1 RGA previously described beside that 11KT (Sigma‐Aldrich, purity 99.0%), a main AR ligand in fish, was competitively spiked at 50 nM into the test medium with test chemicals in antagonist assay. In the agonist and the antagonist assays, 11KT and 2‐hydroxyflutamide (2HFLT; Sigma‐Aldrich, purity 98.5%) were used as positive controls, respectively.
Effect concentrations, that is, EC50 (a half maximal effective concentration) in the agonist assay and IC50 (a half maximal inhibitory concentration) in the antagonist assay, were estimated by nonlinear curve fitting (e.g., three parameters logistic regression curve) using GraphPad Prism (GraphPad Software Inc., La Jolla, CA, USA).

fathead minnow = test system: fathead minnow; design: method as in US EPA, 2007; details: three participating laboratories; ref US EPA, 2007; cited from earlier work
Japanese medaka = details: MMT, ref Flynn et al. (2017), cited from earlier work

medaka ARβ (mARβ), sequence (D1MV73 entry or part of it): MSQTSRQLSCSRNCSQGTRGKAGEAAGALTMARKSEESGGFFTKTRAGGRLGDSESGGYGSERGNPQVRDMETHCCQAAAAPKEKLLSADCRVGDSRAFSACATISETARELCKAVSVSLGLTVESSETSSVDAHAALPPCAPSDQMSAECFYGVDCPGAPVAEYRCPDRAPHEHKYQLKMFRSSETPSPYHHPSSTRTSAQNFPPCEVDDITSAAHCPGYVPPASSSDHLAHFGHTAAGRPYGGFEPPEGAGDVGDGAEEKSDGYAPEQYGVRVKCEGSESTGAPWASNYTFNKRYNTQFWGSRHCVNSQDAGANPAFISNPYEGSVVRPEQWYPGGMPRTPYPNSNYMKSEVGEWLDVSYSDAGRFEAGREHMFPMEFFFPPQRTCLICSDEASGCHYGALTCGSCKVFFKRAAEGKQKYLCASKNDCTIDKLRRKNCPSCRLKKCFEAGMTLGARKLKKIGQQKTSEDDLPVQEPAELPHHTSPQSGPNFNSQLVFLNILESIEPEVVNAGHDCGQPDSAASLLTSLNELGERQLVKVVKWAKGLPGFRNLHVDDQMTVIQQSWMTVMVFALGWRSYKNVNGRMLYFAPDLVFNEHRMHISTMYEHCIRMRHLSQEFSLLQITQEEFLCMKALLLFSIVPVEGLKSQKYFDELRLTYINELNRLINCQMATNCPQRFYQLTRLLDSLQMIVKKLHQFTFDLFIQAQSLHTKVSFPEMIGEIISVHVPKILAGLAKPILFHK

C=CC1(C)OC(=O)N(c2cc(Cl)cc(Cl)c2)C1=O (centres unmarked) [VCZ, Vinclozolin]
effect on fertility rate, in words ([1]; 21-day exposure): significant decrease; also recorded: significant reduction
Fertility rate (%) ([1]; measured conc. 14.5 μg/L): 95%
Mortality (%) Female ([1]; measured conc. 14.5 μg/L): 0%
Mortality (%) Male ([1]; measured conc. 14.5 μg/L): 0%
Number of fertilized eggs ([1]; measured conc. 14.5 μg/L): 22
Number of total eggs ([1]; measured conc. 14.5 μg/L): 24 ± 2.6 /female/day
SSC Female ([1]; measured conc. 14.5 μg/L): 0 ± 0
SSC Male ([1]; measured conc. 14.5 μg/L): 108 ± 18
VTG (ng/mg of liver) Female ([1]; measured conc. 14.5 μg/L): 886 ± 300 ng/mg of liver
VTG (ng/mg of liver) Male ([1]; measured conc. 14.5 μg/L): 7.5 ± 7.2 ng/mg of liver
GSI Female ([1]; measured conc. 14.5 μg/L): 11.8%
GSI Male ([1]; measured conc. 14.5 μg/L): 1.09%
HSI Female ([1]; measured conc. 14.5 μg/L): 4.6%
HSI Male ([1]; measured conc. 14.5 μg/L): 1.7%
Length Female ([1]; measured conc. 14.5 μg/L): 35.2 mm
Length Male ([1]; measured conc. 14.5 μg/L): 34.8 mm
Weight Female ([1]; measured conc. 14.5 μg/L): 447 mg
Weight Male ([1]; measured conc. 14.5 μg/L): 455 mg
Fertility rate (%) ([1]; measured conc. 43.9 μg/L): 94%
Mortality (%) Female ([1]; measured conc. 43.9 μg/L): 0%
Mortality (%) Male ([1]; measured conc. 43.9 μg/L): 0%
Number of fertilized eggs ([1]; measured conc. 43.9 μg/L): 22
Number of total eggs ([1]; measured conc. 43.9 μg/L): 23 ± 5.3 /female/day
SSC Female ([1]; measured conc. 43.9 μg/L): 0 ± 0
SSC Male ([1]; measured conc. 43.9 μg/L): 95 ± 16
VTG (ng/mg of liver) Female ([1]; measured conc. 43.9 μg/L): 816 ± 278 ng/mg of liver
VTG (ng/mg of liver) Male ([1]; measured conc. 43.9 μg/L): 10 ± 12 ng/mg of liver
GSI Female ([1]; measured conc. 43.9 μg/L): 10.7%
GSI Male ([1]; measured conc. 43.9 μg/L): 1.24%
HSI Female ([1]; measured conc. 43.9 μg/L): 4.7%
HSI Male ([1]; measured conc. 43.9 μg/L): 1.7%
Length Female ([1]; measured conc. 43.9 μg/L): 35.0 mm
Length Male ([1]; measured conc. 43.9 μg/L): 34.4 mm
Weight Female ([1]; measured conc. 43.9 μg/L): 445 mg
Weight Male ([1]; measured conc. 43.9 μg/L): 427 mg
Fertility rate (%) ([1]; measured conc. 137 μg/L): 90%
Mortality (%) Female ([1]; measured conc. 137 μg/L): 0%
Mortality (%) Male ([1]; measured conc. 137 μg/L): 0%
Number of fertilized eggs ([1]; measured conc. 137 μg/L): 19
Number of total eggs ([1]; measured conc. 137 μg/L): 21 ± 4.3 /female/day
SSC Female ([1]; measured conc. 137 μg/L): 0 ± 0
SSC Male ([1]; measured conc. 137 μg/L): 108 ± 16
VTG (ng/mg of liver) Female ([1]; measured conc. 137 μg/L): 651 ± 217 ng/mg of liver
VTG (ng/mg of liver) Male ([1]; measured conc. 137 μg/L): 3.6 ± 2.3 ng/mg of liver
GSI Female ([1]; measured conc. 137 μg/L): 10.6%
GSI Male ([1]; measured conc. 137 μg/L): 1.40%
HSI Female ([1]; measured conc. 137 μg/L): 4.5%
HSI Male ([1]; measured conc. 137 μg/L): 1.5%
Length Female ([1]; measured conc. 137 μg/L): 34.8 mm
Length Male ([1]; measured conc. 137 μg/L): 34.4 mm
Weight Female ([1]; measured conc. 137 μg/L): 437 mg
Weight Male ([1]; measured conc. 137 μg/L): 425 mg
Fertility rate (%) ([1]; measured conc. 453 μg/L): 84%
Mortality (%) Female ([1]; measured conc. 453 μg/L): 0%
Mortality (%) Male ([1]; measured conc. 453 μg/L): 0%
Number of fertilized eggs ([1]; measured conc. 453 μg/L): 17
Number of total eggs ([1]; measured conc. 453 μg/L): 20 ± 5.9 /female/day
SSC Female ([1]; measured conc. 453 μg/L): 0 ± 0
SSC Male ([1]; measured conc. 453 μg/L): 102 ± 17
VTG (ng/mg of liver) Female ([1]; measured conc. 453 μg/L): 111 ± 92 ng/mg of liver
VTG (ng/mg of liver) Male ([1]; measured conc. 453 μg/L): 3.9 ± 8.6 ng/mg of liver
GSI Female ([1]; measured conc. 453 μg/L): 12.0%
GSI Male ([1]; measured conc. 453 μg/L): 1.46%
HSI Female ([1]; measured conc. 453 μg/L): 4.7%
HSI Male ([1]; measured conc. 453 μg/L): 1.8%
Length Female ([1]; measured conc. 453 μg/L): 34.8 mm
Length Male ([1]; measured conc. 453 μg/L): 34.9 mm
Weight Female ([1]; measured conc. 453 μg/L): 455 mg
Weight Male ([1]; measured conc. 453 μg/L): 455 mg
effect on fecundity (number of total eggs), in words ([1]; within the test concentrations, 21-day exposure): No effect
mARβ antagonist activity (in words) (medaka ARβ (mARβ)): inhibited
nominal concentration with significant decrease in nuptial tubercle number in males (fathead minnow): 900 µg/L
LOEC on SSC in females (Japanese medaka): 33 µg/L
LOEC on reproduction (fecundity and/or fertility) (Japanese medaka; long-term exposure): 253 µg/L
